Source: patent publication US20260242353A1, “HETEROARYL DERIVATIVES AS DDRs INHIBITORS” (CHIESI FARMACEUTICI S.P.A., priority 2022, published 2026)

Columns and labels:
DDR2 = biological target: T1, DDR2 (Homo sapiens, UniProt Q16832); assay: LanthaScreen Europium Kinase Binding assay, DDR2; settings: 5 nM DDR2, 10 nM Kinase Tracer 178, 1 h at rt; Ki from IC50 by Cheng-Prusoff; read-out: Ki DDR2
T1 construct: purchased Life Technologies
T1 sequence (Q16832 22-855): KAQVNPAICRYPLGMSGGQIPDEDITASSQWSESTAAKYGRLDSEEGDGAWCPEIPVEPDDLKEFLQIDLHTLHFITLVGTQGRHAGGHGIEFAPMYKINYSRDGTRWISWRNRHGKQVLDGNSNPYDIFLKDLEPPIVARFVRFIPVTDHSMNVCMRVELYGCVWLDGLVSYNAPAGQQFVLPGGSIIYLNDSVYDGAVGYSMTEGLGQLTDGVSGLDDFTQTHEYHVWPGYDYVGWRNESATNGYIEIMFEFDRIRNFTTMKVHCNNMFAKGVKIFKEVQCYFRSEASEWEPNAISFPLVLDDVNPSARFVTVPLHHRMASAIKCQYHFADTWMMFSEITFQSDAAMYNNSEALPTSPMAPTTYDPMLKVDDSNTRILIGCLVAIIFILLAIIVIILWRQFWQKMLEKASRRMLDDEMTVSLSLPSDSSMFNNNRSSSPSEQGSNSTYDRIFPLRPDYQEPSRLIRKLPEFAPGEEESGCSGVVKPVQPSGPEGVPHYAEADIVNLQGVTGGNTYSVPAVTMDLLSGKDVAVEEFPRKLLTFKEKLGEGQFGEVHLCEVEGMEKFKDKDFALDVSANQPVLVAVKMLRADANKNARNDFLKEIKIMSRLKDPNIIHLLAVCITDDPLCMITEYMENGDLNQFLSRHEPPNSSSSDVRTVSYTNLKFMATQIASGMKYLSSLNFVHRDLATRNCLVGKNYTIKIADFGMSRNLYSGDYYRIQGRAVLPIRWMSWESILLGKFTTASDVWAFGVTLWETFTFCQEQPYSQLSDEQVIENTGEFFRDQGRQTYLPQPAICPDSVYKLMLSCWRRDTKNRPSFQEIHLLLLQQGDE
Protocol: (§1) DDR1 and DDR2 binding assays were performed using Life Technologies LanthaScreen™ Europium Kinase Binding assay. The compounds were incubated with 5 nM DDR1 (Carna Biosciences) or 5 nM DDR2 (Life Technologies) for 1 h at rt in white 384-well OptiPlate (PerkinElmer), containing 20 nM or 10 nM Kinase Tracer 178 respectively and 2 nM Europium labelled anti-GST antibody (Life Technologies) in assay buffer (50 mM HEPES pH 7.5, 10 mM MgCI2, 1 mM EGTA and 0.01% BRIJ35). The ratio of fluorescence emission 665 nm/615 nm after excitation at 340 nm was obtained using the Tecan Spark 20M plate reader. IC50 values were determined in GraphPad Prism 7.0 software, using 4 parameter model: log(inhibitor) vs. response. IC50 values were converted in Ki using the Cheng-Prusoff equation (Ki=IC50/(1+[Tracer]/Kd).

DDR1 = biological target: T2, DDR1 (Homo sapiens, UniProt Q08345); assay: LanthaScreen Europium Kinase Binding assay, DDR1; settings: 5 nM DDR1, 20 nM Kinase Tracer 178, 1 h at rt; Ki from IC50 by Cheng-Prusoff; read-out: Ki DDR1
T2 construct: purchased Carna Biosciences
T2 sequence (Q08345 19-913): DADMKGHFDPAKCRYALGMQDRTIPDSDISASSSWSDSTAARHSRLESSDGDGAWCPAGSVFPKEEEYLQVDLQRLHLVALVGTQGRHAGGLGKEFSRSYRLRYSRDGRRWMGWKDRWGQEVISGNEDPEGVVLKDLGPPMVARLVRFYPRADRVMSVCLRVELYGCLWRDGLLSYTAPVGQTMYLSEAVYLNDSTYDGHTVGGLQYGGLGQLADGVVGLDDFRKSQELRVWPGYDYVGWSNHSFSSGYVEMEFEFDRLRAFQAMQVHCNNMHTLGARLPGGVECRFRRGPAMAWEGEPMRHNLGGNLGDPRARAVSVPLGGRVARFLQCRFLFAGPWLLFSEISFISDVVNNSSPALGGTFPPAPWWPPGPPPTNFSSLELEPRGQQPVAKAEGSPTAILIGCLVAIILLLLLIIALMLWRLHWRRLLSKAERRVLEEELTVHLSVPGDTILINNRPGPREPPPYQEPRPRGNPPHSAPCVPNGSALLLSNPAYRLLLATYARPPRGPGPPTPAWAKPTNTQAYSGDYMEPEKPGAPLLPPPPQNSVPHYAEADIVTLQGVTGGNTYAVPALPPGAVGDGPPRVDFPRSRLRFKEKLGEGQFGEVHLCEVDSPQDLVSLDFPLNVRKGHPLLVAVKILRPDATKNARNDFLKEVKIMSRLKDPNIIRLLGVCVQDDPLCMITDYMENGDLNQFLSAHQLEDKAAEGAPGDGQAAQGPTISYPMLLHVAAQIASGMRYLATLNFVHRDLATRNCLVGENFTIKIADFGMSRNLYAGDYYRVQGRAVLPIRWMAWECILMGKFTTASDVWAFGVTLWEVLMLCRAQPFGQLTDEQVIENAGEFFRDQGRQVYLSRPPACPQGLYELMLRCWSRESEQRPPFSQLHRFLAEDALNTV
Protocol: as §1

For `Cc1ccc(C(=O)Nc2cncc(C(F)(F)F)c2)cc1[C@@H]1CN(c2cncnc2)C[C@H]1CO` (racemic) [Example 104, 3-((3R,4S)-3-(4-(hydroxymethyl)-1-(pyrimidin-5-yl)pyrrolidin-3-yl)-4-methyl-N-(5-(trifluoromethyl)pyridin-3-yl)benzamide and 3-((3S,4R)-3-(4-(hydroxymethyl)-1-(pyrimidin-5-yl)pyrrolidin-3-yl)-4-methyl-N-(5-(trifluoromethyl)pyridin-3-yl)benzamide], the Ki (DDR2) was 5 to 25 nM and the Ki (DDR1) was < 5 nM.

With `Cc1ccc(C(=O)Nc2cncc(C(F)(F)F)c2)cc1[C@@H]1CN(c2cncnc2)C[C@H]1O` (racemic) [Example 105, 3-((3S,4R)-3-(4-hydroxy-1-(pyrimidin-5-yl)pyrrolidin-3-yl)-4-methyl-N-(5-(trifluoromethyl)pyridin-3-yl)benzamide and 3-((3R,4S)-4-hydroxy-1-(pyrimidin-5-yl)pyrrolidin-3-yl)-4-methyl-N-(5-(trifluoromethyl)pyridin-3-yl)benzamide] the Ki (DDR2) was 5 to 25 nM and the Ki (DDR1) was < 5 nM.

For `COc1ccc(C(=O)Nc2cncc(C(F)(F)F)c2)cc1C1CCN(c2cncnc2)C1` (racemic) [Example 111, 4-methoxy-3-(1-(pyrimidin-5-yl)pyrrolidin-3-yl)-N-(5-(trifluoromethyl)pyridin-3-yl)benzamide], the Ki (DDR2) was 5 to 25 nM and the Ki (DDR1) was < 5 nM.

In the case of `COc1ccc(C(=O)Nc2cncc(C(F)(F)F)c2)cc1C1CCN(c2cncnc2)C1` (single isomer, unassigned) [Example 109, 4-methoxy-3-(1-(pyrimidin-5-yl)pyrrolidin-3-yl)-N-(5-(trifluoromethyl)pyridin-3-yl)benzamide], the Ki (DDR2) is reported as < 5 nM and the Ki (DDR1) is reported as < 5 nM.

With `COc1ccc(C(=O)Nc2cncc(C(F)(F)F)c2)cc1C1CCN(c2cncnc2)C1` (single isomer, unassigned) [Example 110, 4-methoxy-3-(1-(pyrimidin-5-yl)pyrrolidin-3-yl)-N-(5-(trifluoromethyl)pyridin-3-yl)benzamide] the Ki (DDR2) was 5 to 25 nM and the Ki (DDR1) was < 5 nM.

In the case of `COc1ccc(C(=O)Nc2cncc(C(F)(F)F)c2)cc1C1CCN(c2cnn3cccnc23)C1` (single isomer, unassigned) [Example 114, 4-methoxy-3-(1-(pyrazolo[1,5-a]pyrimidin-3-yl)pyrrolidin-3-yl)-N-(5-(trifluoromethyl)pyridin-3-yl)benzamide], the Ki (DDR2) is reported as 5 to 25 nM and the Ki (DDR1) is reported as < 5 nM.

`COc1ccc(C(=O)Nc2cncc(C(F)(F)F)c2)cc1C1CCN(c2cnn3cccnc23)C1` (single isomer, unassigned) [Example 115, 4-methoxy-3-(1-(pyrazolo[1,5-a]pyrimidin-3-yl)pyrrolidin-3-yl)-N-(5-(trifluoromethyl)pyridin-3-yl)benzamide] was tested, and the Ki (DDR2) was 5 to 25 nM and the Ki (DDR1) was < 5 nM.

For `O=C(Nc1cncc(C(F)(F)F)c1)c1ccc(OC(F)F)c(C2CCN(c3cncnc3)C2)c1` (single isomer, unassigned) [Example 116, 4-(difluoromethoxy)-3-(1-(pyrimidin-5-yl)pyrrolidin-3-yl)-N-(5-(trifluoromethyl)pyridin-3-yl)benzamide], the Ki (DDR2) was < 5 nM and the Ki (DDR1) was < 5 nM.

With `O=C(Nc1cncc(C(F)(F)F)c1)c1ccc(OC(F)F)c(C2CCN(c3cncnc3)C2)c1` (single isomer, unassigned) [Example 117, 4-(difluoromethoxy)-3-(1-(pyrimidin-5-yl)pyrrolidin-3-yl)-N-(5-(trifluoromethyl)pyridin-3-yl)benzamide] the Ki (DDR2) was < 5 nM and the Ki (DDR1) was < 5 nM.

`NC(=O)c1cc(N2CCC(c3cc(C(=O)Nc4cncc(C(F)(F)F)c4)ccc3OC(F)F)C2)ccn1` (single isomer, unassigned) [Example 118, 4-(3-(2-(difluoromethoxy)-5-((5-(trifluoromethyl)pyridin-3-yl)carbamoyl)phenyl)pyrrolidin-1-yl)picolinamide] was tested, and the Ki (DDR2) was 5 to 25 nM and the Ki (DDR1) was < 5 nM.

In the case of `NC(=O)c1cc(N2CCC(c3cc(C(=O)Nc4cncc(C(F)(F)F)c4)ccc3OC(F)F)C2)ccn1` (single isomer, unassigned) [Example 119, 4-(3-(2-(difluoromethoxy)-5-((5-(trifluoromethyl)pyridin-3-yl)carbamoyl)phenyl)pyrrolidin-1-yl)picolinamide], the Ki (DDR2) is reported as 5 to 25 nM and the Ki (DDR1) is reported as < 5 nM.

For `O=C(Nc1cncc(C(F)(F)F)c1)c1ccc(C(F)F)c(C2CCN(c3cncnc3)C2)c1` (single isomer, unassigned) [Example 121], the Ki (DDR2) was < 5 nM and the Ki (DDR1) was < 5 nM.

`Cc1ccc(C(=O)Nc2cncc(C(F)(F)F)c2)cc1C1CN(c2cncnc2)CC1O` (single isomer, unassigned) [Example 122, 3-(4-hydroxy-1-(pyrimidin-5-yl)pyrrolidin-3-yl)-4-methyl-N-(5-(trifluoromethyl)pyridin-3-yl)benzamide] was tested, and the Ki (DDR2) was 5 to 25 nM and the Ki (DDR1) was < 5 nM.

For `Cc1ccc(C(=O)Nc2cncc(C(F)(F)F)c2)cc1C1CCN(c2cnn3cccnc23)C1` (stereo in doubt) [Example 90, 4-methyl-3-[(3R)-1-pyrazolo[1,5-a]pyrimidin-3-ylpyrrolidin-3-yl]-N-[5-(trifluoromethyl)-3-pyridyl]benzamide], the Ki (DDR2) was 5 to 25 nM and the Ki (DDR1) was < 5 nM.

In the case of `Cc1ccc(C(=O)Nc2cncc(C(F)(F)F)c2)cc1[C@@H]1CCN(c2cncc(C(N)=O)c2)C1` [Example 1, (S)-5-(3-(2-methyl-5-((5-(trifluoromethyl)pyridin-3-yl)carbamoyl)phenyl)pyrrolidin-1-yl)nicotinamide], the Ki (DDR2) is reported as < 5 nM and the Ki (DDR1) is reported as < 5 nM.

With `Cc1ccc(C(=O)Nc2cncc(C(F)(F)F)c2)cc1[C@H]1CCN(c2cncc(C(N)=O)c2)C1` [Example 2, (R)-5-(3-(2-methyl-5-((5-(trifluoromethyl)pyridin-3-yl)carbamoyl)phenyl)pyrrolidin-1-yl)nicotinamide] the Ki (DDR2) was 5 to 25 nM and the Ki (DDR1) was < 5 nM.

In the case of `Cc1ccc(C(=O)Nc2cc(C(C)(C)C)n(C)n2)cc1[C@@H]1CCN(c2cncc(C(N)=O)c2)C1` [Example 3, (S)-5-(3-(5-((5-(tert-butyl)-1-methyl-1H-pyrazol-3-yl)carbamoyl)-2-methylphenyl)pyrrolidin-1-yl)nicotinamide], the Ki (DDR2) is reported as < 5 nM and the Ki (DDR1) is reported as < 5 nM.

`Cc1ccc(C(=O)Nc2cc(C(C)(C)C(F)(F)F)on2)cc1[C@@H]1CCN(c2cncc(C(N)=O)c2)C1` [Example 4, (S)-5-(3-(2-methyl-5-((5-(1,1,1-trifluoro-2-methylpropan-2-yl)isoxazol-3-yl)carbamoyl)phenyl)pyrrolidin-1-yl)nicotinamide] was tested, and the Ki (DDR2) was < 5 nM and the Ki (DDR1) was < 5 nM.

In the case of `Cc1ccc(C(=O)Nc2cc(C(C)(C)C)nn2C)cc1[C@@H]1CCN(c2cncc(C(N)=O)c2)C1` [Example 5, (S)-5-(3-(5-((3-(tert-butyl)-1-methyl-1H-pyrazol-5-yl)carbamoyl)-2-methylphenyl)pyrrolidin-1-yl)nicotinamide], the Ki (DDR2) is reported as 5 to 25 nM and the Ki (DDR1) is reported as < 5 nM.

`Cc1ccc(C(=O)Nc2cc(C(C)(C)C)no2)cc1[C@@H]1CCN(c2cncc(C(N)=O)c2)C1` [Example 6, (S)-5-(3-(5-((3-(tert-butyl)isoxazol-5-yl)carbamoyl)-2-methylphenyl)pyrrolidin-1-yl)nicotinamide] was tested, and the Ki (DDR2) was < 5 nM and the Ki (DDR1) was < 5 nM.

`Cc1ccc(C(=O)Nc2cc(C(C)(C)C)no2)cc1[C@@H]1CCN(c2cncc(C#N)c2)C1` [Example 7, (S)—N-(3-(tert-butyl)isoxazol-5-yl)-3-(1-(5-cyanopyridin-3-yl)pyrrolidin-3-yl)-4-methylbenzamide] was tested, and the Ki (DDR2) was 5 to 25 nM and the Ki (DDR1) was < 5 nM.

For `Cc1ccc(C(=O)Nc2cc(C(F)(F)F)ncn2)cc1[C@@H]1CCN(c2cncc(C#N)c2)C1` [Example 8, (S)-3-(1-(5-cyanopyridin-3-yl)pyrrolidin-3-yl)-4-methyl-N-(6-(trifluoromethyl)pyrimidin-4-yl)benzamide], the Ki (DDR2) was 5 to 25 nM and the Ki (DDR1) was < 5 nM.

With `Cc1ccc(C(=O)Nc2cc(OC(F)(F)F)ccn2)cc1[C@@H]1CCN(c2cncc(C(N)=O)c2)C1` [Example 9, (S)-5-(3-(2-methyl-5-((4-(trifluoromethoxy)pyridin-2-yl)carbamoyl)phenyl)pyrrolidin-1-yl)nicotinamide] the Ki (DDR2) was < 5 nM and the Ki (DDR1) was < 5 nM.
